Literature values in US20220401366A1, “LONG ACTING NMDA ANTAGONISTS” (Consegna Pharma, Inc., priority 2019, published 2022).

Settings: S-ketamine versus R-ketamine

SMILES: CN[C@]1(c2ccccc2Cl)CCCCC1=O [S-ketamine]
- potency relative to R-ketamine: twice as potent as R-ketamine
